Species: Rattus norvegicus
Assay: DrugMatrix - Regimen: Daily Repeat
Assay type: toxicity, organism-based, Sprague-Dawley
Set-up: regimen Daily Repeat, gender Male, age 6-8 weeks
Details: in vivo, iv, […], vehicle 100 % SALINE; for ALANINE AMINOTRANSFERASE / ALBUMIN / ALKALINE PHOSPHATASE / ASPARTATE AMINOTRANSFERASE / BLOOD UREA NITROGEN / CARBON DIOXIDE / CHLORIDE / CHOLESTEROL / CREATINE PHOSPHOKINASE / CREATININE / GLUCOSE / LACTATE DEHYDROGENASE / LIPASE / PHOSPHORUS / POTASSIUM / SODIUM / TOTAL BILIRUBIN / TOTAL PROTEIN / URIC ACID: tissue Plasma; for ABSOLUTE BASOPHIL / ABSOLUTE EOSINOPHIL / ABSOLUTE LYMPHOCYTE / ABSOLUTE MONOCYTE / ABSOLUTE SEGMENTED NEUTROPHIL / BASOPHIL / EOSINOPHIL / ERYTHROCYTE COUNT / HEMATOCRIT / HEMOGLOBIN / LEUKOCYTE COUNT / LYMPHOCYTE / MEAN CORPUSCULAR HEMOGLOBIN / MEAN CORPUSCULAR HEMOGLOBIN CONCENTRATION / MEAN CORPUSCULAR VOLUME / MONOCYTE / NEUTROPHIL / NUCLEATED RED BLOOD CELLS / PLATELET COUNT: tissue Blood
[1] = 72 h, dose 0.0033 mg/Kg, dose level Low, time 3 day
[2] = 72 h, dose 0.033 mg/Kg, dose level High, time 3 day
[3] = 120 h, dose 0.0033 mg/Kg, dose level Low, time 5 day
[4] = 120 h, dose 0.033 mg/Kg, dose level High, time 5 day

Compound: COc1cc2c3cc1Oc1cc(ccc1O)C[C@@H]1c4c(cc(OC)c(O)c4Oc4ccc(cc4)C[C@@H]3N(C)CC2)CC[N+]1(C)C.[Cl-]
- ALANINE AMINOTRANSFERASE [1]: 58 u/L
- ALBUMIN [1]: 4.23 G/DL
- ALKALINE PHOSPHATASE [1]: 467.33 u/L
- ASPARTATE AMINOTRANSFERASE [1]: 94 u/L
- BLOOD UREA NITROGEN [1]: 17 mg/dL
- CARBON DIOXIDE [1]: 33 mmol/L
- CHLORIDE [1]: 101 MEQ/L
- CHOLESTEROL [1]: 69.33 mg/dL
- CREATINE PHOSPHOKINASE [1]: 839.67 u/L
- CREATININE [1]: 0.22 mg/dL
- GLUCOSE [1]: 165 mg/dL
- LACTATE DEHYDROGENASE [1]: 138 u/L
- LIPASE [1]: 8.33 u/L
- PHOSPHORUS [1]: 10.83 mg/dL
- POTASSIUM [1]: 5.81 MEQ/L
- SODIUM [1]: 143.17 MEQ/L
- TOTAL BILIRUBIN [1]: 0.2 mg/dL
- TOTAL PROTEIN [1]: 5.87 G/DL
- URIC ACID [1]: 0.9 mg/dL
- ALANINE AMINOTRANSFERASE [2]: 56 u/L
- ALBUMIN [2]: 3.97 G/DL
- ALKALINE PHOSPHATASE [2]: 312.33 u/L
- ASPARTATE AMINOTRANSFERASE [2]: 91.67 u/L
- BLOOD UREA NITROGEN [2]: 16.33 mg/dL
- CARBON DIOXIDE [2]: 28 mmol/L
- CHLORIDE [2]: 101.33 MEQ/L
- CHOLESTEROL [2]: 75.33 mg/dL
- CREATINE PHOSPHOKINASE [2]: 431.33 u/L
- CREATININE [2]: 0.2 mg/dL
- GLUCOSE [2]: 169 mg/dL
- LACTATE DEHYDROGENASE [2]: 240.33 u/L
- LIPASE [2]: 12.67 u/L
- PHOSPHORUS [2]: 11.4 mg/dL
- POTASSIUM [2]: 5.83 MEQ/L
- SODIUM [2]: 141.23 MEQ/L
- TOTAL BILIRUBIN [2]: 0.2 mg/dL
- TOTAL PROTEIN [2]: 5.67 G/DL
- URIC ACID [2]: 1.5 mg/dL
- ABSOLUTE BASOPHIL [3]: 0 CELLS/uL
- ABSOLUTE EOSINOPHIL [3]: 0 CELLS/uL
- ABSOLUTE LYMPHOCYTE [3]: 11354.67 CELLS/uL
- ABSOLUTE MONOCYTE [3]: 87 CELLS/uL
- ABSOLUTE SEGMENTED NEUTROPHIL [3]: 958.33 CELLS/uL
- BASOPHIL [3]: 0%
- EOSINOPHIL [3]: 0%
- ERYTHROCYTE COUNT [3]: 5.2 x10E6/uL
- HEMATOCRIT [3]: 33.13%
- HEMOGLOBIN [3]: 13.43 G/DL
- LEUKOCYTE COUNT [3]: 12.4 x10E3/uL
- LYMPHOCYTE [3]: 91.67%
- MEAN CORPUSCULAR HEMOGLOBIN [3]: 25.8 pg
- MEAN CORPUSCULAR HEMOGLOBIN CONCENTRATION [3]: 40.53 G/DL
- MEAN CORPUSCULAR VOLUME [3]: 63.7 fL
- MONOCYTE [3]: 0.67%
- NEUTROPHIL [3]: 7.67%
- NUCLEATED RED BLOOD CELLS [3]: 0 /100WBC
- PLATELET COUNT [3]: 1167.67 x10E3/uL
- ABSOLUTE BASOPHIL [4]: 0 CELLS/uL
- ABSOLUTE EOSINOPHIL [4]: 146 CELLS/uL
- ABSOLUTE LYMPHOCYTE [4]: 11010.33 CELLS/uL
- ABSOLUTE MONOCYTE [4]: 173 CELLS/uL
- ABSOLUTE SEGMENTED NEUTROPHIL [4]: 1104 CELLS/uL
- BASOPHIL [4]: 0%
- EOSINOPHIL [4]: 1%
- ERYTHROCYTE COUNT [4]: 5.51 x10E6/uL
- HEMATOCRIT [4]: 34.03%
- HEMOGLOBIN [4]: 13.57 G/DL
- LEUKOCYTE COUNT [4]: 12.43 x10E3/uL
- LYMPHOCYTE [4]: 88.67%
- MEAN CORPUSCULAR HEMOGLOBIN [4]: 24.63 pg
- MEAN CORPUSCULAR HEMOGLOBIN CONCENTRATION [4]: 39.87 G/DL
- MEAN CORPUSCULAR VOLUME [4]: 61.77 fL
- MONOCYTE [4]: 1.33%
- NEUTROPHIL [4]: 9%
- NUCLEATED RED BLOOD CELLS [4]: 0 /100WBC
- PLATELET COUNT [4]: 1282.67 x10E3/uL
- ALANINE AMINOTRANSFERASE [3]: 55.67 u/L
- ALBUMIN [3]: 4.07 G/DL
- ALKALINE PHOSPHATASE [3]: 352.67 u/L
- ASPARTATE AMINOTRANSFERASE [3]: 91.67 u/L
- BLOOD UREA NITROGEN [3]: 20.67 mg/dL
- CARBON DIOXIDE [3]: 28 mmol/L
- CHLORIDE [3]: 102.67 MEQ/L
- CHOLESTEROL [3]: 72.67 mg/dL
- CREATINE PHOSPHOKINASE [3]: 402.33 u/L
- CREATININE [3]: 0.22 mg/dL
- GLUCOSE [3]: 169 mg/dL
- LACTATE DEHYDROGENASE [3]: 354.67 u/L
- LIPASE [3]: 10 u/L
- PHOSPHORUS [3]: 11.7 mg/dL
- POTASSIUM [3]: 6.36 MEQ/L
- SODIUM [3]: 144.1 MEQ/L
- TOTAL BILIRUBIN [3]: 0.17 mg/dL
- TOTAL PROTEIN [3]: 5.8 G/DL
- URIC ACID [3]: 1.53 mg/dL
- ALANINE AMINOTRANSFERASE [4]: 66.33 u/L
- ALBUMIN [4]: 4.17 G/DL
- ALKALINE PHOSPHATASE [4]: 366.33 u/L
- ASPARTATE AMINOTRANSFERASE [4]: 97.67 u/L
- BLOOD UREA NITROGEN [4]: 17.33 mg/dL
- CARBON DIOXIDE [4]: 29.33 mmol/L
- CHLORIDE [4]: 101.33 MEQ/L
- CHOLESTEROL [4]: 68.67 mg/dL
- CREATINE PHOSPHOKINASE [4]: 303.67 u/L
- CREATININE [4]: 0.15 mg/dL
- GLUCOSE [4]: 156.33 mg/dL
- LACTATE DEHYDROGENASE [4]: 446 u/L
- LIPASE [4]: 10.67 u/L
- PHOSPHORUS [4]: 11.53 mg/dL
- POTASSIUM [4]: 5.71 MEQ/L
- SODIUM [4]: 142.9 MEQ/L
- TOTAL BILIRUBIN [4]: 0.2 mg/dL
- TOTAL PROTEIN [4]: 5.73 G/DL
- URIC ACID [4]: 1.33 mg/dL

From ChEMBL document CHEMBL3885881, “DrugMatrix”
